Assay results from PubChem BioAssay AID1963830 (Molecular Pharmacology Branch, DTP, NCI, 2024).

System: 922993-354-T-J3-PDC complex spheroid viability
Experiment: Anticancer human tumor 922993-354-T-J3-PDC patient-derived endometrial carcinoma cell line growth inhibition [POLQ]
Settings: for IC50: curve of first compound; for viability, T/C: stronger effect = lower value
Procedure, shortened: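 Complex spheroid viability model combining PDC tumour cells with endothelial (HUVEC) and MSC stromal cells. Novobiocin, ART-558 or RP6685 were tested singly and in combination with standard and investigational anticancer drugs. Each was titrated in half-log steps from near clinical Cmax, or from 10 microM where Cmax was unknown.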

[1] = second compound 0.0316 µM, first compound 0.0316 µM
[2] = second compound 0.0316 µM, first compound 0.1 µM
[3] = second compound 0.0316 µM, first compound 0.316 µM
[4] = second compound 0.0316 µM, first compound 1 µM
[5] = second compound 0.0316 µM, first compound 3.16 µM
[6] = second compound 0.0316 µM, first compound 10 µM
[7] = second compound 0.1 µM, first compound 0.0316 µM
[8] = second compound 0.1 µM, first compound 0.1 µM
[9] = second compound 0.1 µM, first compound 0.316 µM
[10] = second compound 0.1 µM, first compound 1 µM
[11] = second compound 0.1 µM, first compound 3.16 µM
[12] = second compound 0.1 µM, first compound 10 µM
[13] = second compound 0.316 µM, first compound 0.0316 µM
[14] = second compound 0.316 µM, first compound 0.1 µM
[15] = second compound 0.316 µM, first compound 0.316 µM
[16] = second compound 0.316 µM, first compound 1 µM
[17] = second compound 0.316 µM, first compound 3.16 µM
[18] = second compound 0.316 µM, first compound 10 µM
[19] = second compound 1 µM, first compound 0.0316 µM
[20] = second compound 1 µM, first compound 0.1 µM
[21] = second compound 1 µM, first compound 0.316 µM
[22] = second compound 1 µM, first compound 1 µM
[23] = second compound 1 µM, first compound 3.16 µM
[24] = second compound 1 µM, first compound 10 µM
[25] = second compound 3.16 µM, first compound 0.0316 µM
[26] = second compound 3.16 µM, first compound 0.1 µM
[27] = second compound 3.16 µM, first compound 0.316 µM
[28] = second compound 3.16 µM, first compound 1 µM
[29] = second compound 3.16 µM, first compound 3.16 µM
[30] = second compound 3.16 µM, first compound 10 µM
[31] = second compound 10 µM, first compound 0.0316 µM
[32] = second compound 10 µM, first compound 0.1 µM
[33] = second compound 10 µM, first compound 0.316 µM
[34] = second compound 10 µM, first compound 1 µM
[35] = second compound 10 µM, first compound 3.16 µM
[36] = second compound 10 µM, first compound 10 µM
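Further: spheroids exposed to the agents for one week.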
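Wherever viability, T/C is given: 100% = DMSO vehicle control wells.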

C=CC(=O)N1CCN(c2nc(=O)n(-c3c(C)ccnc3C(C)C)c3nc(-c4c(O)cccc4F)c(F)cc23)C(C)C1 (stereo not drawn) + Cc1cccc(N(C)C(=O)C2C(O)CCN2c2nc(C)cc(C(F)(F)F)c2C#N)c1
IC50 (second compound 0.0316 µM): > 10 µM | IC50 (second compound 0.1 µM): > 10 µM | IC50 (second compound 0.316 µM): > 10 µM | IC50 (second compound 1 µM): > 10 µM | IC50 (second compound 3.16 µM): > 10 µM | IC50 (second compound 10 µM): > 10 µM | viability, T/C [1]: 100% | viability, T/C [2]: 105% | viability, T/C [3]: 106% | viability, T/C [4]: 113% | viability, T/C [5]: 102% | viability, T/C [6]: 93.2% | viability, T/C [7]: 104% | viability, T/C [8]: 103% | viability, T/C [9]: 103% | viability, T/C [10]: 108% | viability, T/C [11]: 97.8% | viability, T/C [12]: 102% | viability, T/C [13]: 105% | viability, T/C [14]: 99.2% | viability, T/C [15]: 103% | viability, T/C [16]: 104% | viability, T/C [17]: 92.2% | viability, T/C [18]: 96.8% | viability, T/C [19]: 103% | viability, T/C [20]: 95.2% | viability, T/C [21]: 100% | viability, T/C [22]: 102% | viability, T/C [23]: 101% | viability, T/C [24]: 105% | viability, T/C [25]: 108% | viability, T/C [26]: 103% | viability, T/C [27]: 102% | viability, T/C [28]: 98.9% | viability, T/C [29]: 102% | viability, T/C [30]: 106% | viability, T/C [31]: 93.7% | viability, T/C [32]: 101% | viability, T/C [33]: 97.9% | viability, T/C [34]: 99.8% | viability, T/C [35]: 111% | viability, T/C [36]: 112%

CCc1cc2c(N3CCc4c(cc(Cn5ccnc5)cc4-c4cn(C)nc4C(F)(F)F)C3=O)cc(C)nc2c(OC)n1 + Cc1cccc(N(C)C(=O)C2C(O)CCN2c2nc(C)cc(C(F)(F)F)c2C#N)c1
IC50 (second compound 0.0316 µM): > 10 µM | IC50 (second compound 0.1 µM): > 10 µM | IC50 (second compound 0.316 µM): > 10 µM | IC50 (second compound 1 µM): > 10 µM | IC50 (second compound 3.16 µM): > 10 µM | IC50 (second compound 10 µM): > 10 µM | viability, T/C [1]: 101% | viability, T/C [2]: 105% | viability, T/C [3]: 109% | viability, T/C [4]: 107% | viability, T/C [5]: 102% | viability, T/C [6]: 91.7% | viability, T/C [7]: 109% | viability, T/C [8]: 101% | viability, T/C [9]: 108% | viability, T/C [10]: 105% | viability, T/C [11]: 106% | viability, T/C [12]: 97% | viability, T/C [13]: 103% | viability, T/C [14]: 103% | viability, T/C [15]: 107% | viability, T/C [16]: 108% | viability, T/C [17]: 110% | viability, T/C [18]: 98.7% | viability, T/C [19]: 102% | viability, T/C [20]: 103% | viability, T/C [21]: 107% | viability, T/C [22]: 105% | viability, T/C [23]: 108% | viability, T/C [24]: 101% | viability, T/C [25]: 103% | viability, T/C [26]: 104% | viability, T/C [27]: 106% | viability, T/C [28]: 105% | viability, T/C [29]: 104% | viability, T/C [30]: 99.7% | viability, T/C [31]: 93.4% | viability, T/C [32]: 104% | viability, T/C [33]: 105% | viability, T/C [34]: 102% | viability, T/C [35]: 107% | viability, T/C [36]: 98.2%

CCc1cc2c(N3CCc4c(cc(Cn5ccnc5)cc4-c4cn(C)nc4C(F)(F)F)C3=O)ccnc2c(OC)n1 + Cc1cccc(N(C)C(=O)C2C(O)CCN2c2nc(C)cc(C(F)(F)F)c2C#N)c1
IC50 (second compound 0.0316 µM): > 10 µM | IC50 (second compound 0.1 µM): > 10 µM | IC50 (second compound 0.316 µM): > 10 µM | IC50 (second compound 1 µM): > 10 µM | IC50 (second compound 3.16 µM): > 10 µM | IC50 (second compound 10 µM): > 10 µM | viability, T/C [1]: 105% | viability, T/C [2]: 107% | viability, T/C [3]: 107% | viability, T/C [4]: 108% | viability, T/C [5]: 110% | viability, T/C [6]: 94.1% | viability, T/C [7]: 107% | viability, T/C [8]: 106% | viability, T/C [9]: 104% | viability, T/C [10]: 107% | viability, T/C [11]: 105% | viability, T/C [12]: 99% | viability, T/C [13]: 104% | viability, T/C [14]: 100% | viability, T/C [15]: 107% | viability, T/C [16]: 110% | viability, T/C [17]: 105% | viability, T/C [18]: 99.5% | viability, T/C [19]: 101% | viability, T/C [20]: 99.4% | viability, T/C [21]: 108% | viability, T/C [22]: 109% | viability, T/C [23]: 102% | viability, T/C [24]: 107% | viability, T/C [25]: 102% | viability, T/C [26]: 107% | viability, T/C [27]: 106% | viability, T/C [28]: 106% | viability, T/C [29]: 107% | viability, T/C [30]: 98.4% | viability, T/C [31]: 104% | viability, T/C [32]: 98.4% | viability, T/C [33]: 98.8% | viability, T/C [34]: 102% | viability, T/C [35]: 98.5% | viability, T/C [36]: 102%

COc1cc2cc(C(=O)CCC(=O)O)sc2cc1OC + Cc1cccc(N(C)C(=O)C2C(O)CCN2c2nc(C)cc(C(F)(F)F)c2C#N)c1
IC50 (second compound 0.0316 µM): > 10 µM | IC50 (second compound 0.1 µM): > 10 µM | IC50 (second compound 0.316 µM): > 10 µM | IC50 (second compound 1 µM): > 10 µM | IC50 (second compound 3.16 µM): > 10 µM | IC50 (second compound 10 µM): > 10 µM | viability, T/C [1]: 101% | viability, T/C [2]: 103% | viability, T/C [3]: 101% | viability, T/C [4]: 103% | viability, T/C [5]: 105% | viability, T/C [6]: 83.8% | viability, T/C [7]: 105% | viability, T/C [8]: 105% | viability, T/C [9]: 97% | viability, T/C [10]: 102% | viability, T/C [11]: 107% | viability, T/C [12]: 90.6% | viability, T/C [13]: 102% | viability, T/C [14]: 105% | viability, T/C [15]: 101% | viability, T/C [16]: 104% | viability, T/C [17]: 108% | viability, T/C [18]: 91.3% | viability, T/C [19]: 96.8% | viability, T/C [20]: 106% | viability, T/C [21]: 105% | viability, T/C [22]: 104% | viability, T/C [23]: 102% | viability, T/C [24]: 92.3% | viability, T/C [25]: 102% | viability, T/C [26]: 101% | viability, T/C [27]: 105% | viability, T/C [28]: 103% | viability, T/C [29]: 110% | viability, T/C [30]: 90.3% | viability, T/C [31]: 104% | viability, T/C [32]: 98% | viability, T/C [33]: 101% | viability, T/C [34]: 99.6% | viability, T/C [35]: 109% | viability, T/C [36]: 93.7%
